Drawing on patent publication US7217730B2, “Method for the use of pyranoindole derivatives to treat infection with Hepatitis C virus” (Wyeth, priority 2002, dated 2007), this text covers inhibition and IC50 for 23 compounds.

For this experiment, the target named is T1, NS5B from the BK strain (genotype 1b) (Hepatitis C virus genotype 1b, UniProt P26663).
T1 construct: NS5B from the BK strain (genotype 1b) is expressed in E. coli as a protein in which the 21 C-terminal amino acids are replaced; made in house; host or cells: E. coli
T1 sequence (P26663 2420-2989): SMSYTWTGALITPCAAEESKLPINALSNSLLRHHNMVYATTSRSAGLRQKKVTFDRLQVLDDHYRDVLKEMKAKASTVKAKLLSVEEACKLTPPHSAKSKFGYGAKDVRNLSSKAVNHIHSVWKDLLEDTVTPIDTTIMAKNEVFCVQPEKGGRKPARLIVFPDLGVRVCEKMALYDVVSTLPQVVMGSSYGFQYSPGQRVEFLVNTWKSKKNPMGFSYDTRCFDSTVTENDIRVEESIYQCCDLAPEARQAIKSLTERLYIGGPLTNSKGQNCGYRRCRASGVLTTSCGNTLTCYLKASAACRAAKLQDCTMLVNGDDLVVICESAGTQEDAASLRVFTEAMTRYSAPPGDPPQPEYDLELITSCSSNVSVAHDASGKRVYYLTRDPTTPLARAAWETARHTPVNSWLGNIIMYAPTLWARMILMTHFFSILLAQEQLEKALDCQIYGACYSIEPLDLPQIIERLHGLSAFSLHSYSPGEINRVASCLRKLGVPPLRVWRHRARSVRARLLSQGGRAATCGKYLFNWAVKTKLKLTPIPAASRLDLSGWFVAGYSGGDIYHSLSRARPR
Put plainly: Hepatitis C polymerase inhibition, NS5B BK strain, 33P-GTP filter assay. The experiment is classed as biochemical. Particulars: Table 1A; for inhibition at 20 µM: 20 μM compound, read-out: HCV pol % inh at 20 μM; for IC50: NS5B BK strain, read-out: HCV pol BK IC50. The source says: The ability of the compounds of the present invention to inhibit Hepatitis C Polymerase was established by the following experimental procedure: • NS5B from the BK strain (genotype 1b) is expressed in E. coli as a protein in which the 21 C-terminal amino acids are replaced with a short linker and a hexahistidine tag ([…]). The purified protein is mixed with radioactive nucleotides and allowed to replicate a heteropolymeric RNA substrate, primed by an endogenous short hairpin, resulting in an approximately 760 nt product. The radioactive product is captured on a filter and quantitated after removal of the unincorporated nucleotides.
Reagents: • 10 mM uridine 5′-triphosphate (UTP) (Promega # p116B) • 10 mM adenine 5′-triphosphate (ATP) (Promega # p113B) • 10 mM cytidine 5′-triphosphate (CTP) (Promega # p114B) • 10 mM guanine 5′-triphosphate (GTP) (Promega # p115B) • Bovine Serum Albumin (BSA) 10 mg/ml NEB (100× at 10 mg/ml) #007-BSA • RNasein (Promega #N251X) 40 U/μl • A-[33P]-GTP (NEN-easytides NEG/606H 3000 Ci/mmol, 370 MBq/ml, 10 mCi/ml) • Falcon polypropylene 96 well plates (Becton Dickinson # 351190) • Millipore Multiscreen assasy system-96 well-filtration plate #MADE NOB 50 • Optiphase Supermix (Wallac) formulated by Fisher • Millipore Multiscreen liner for use in microbeta 1450-106 casette [(Wallac) Perkin Elmer #1450-433] • 1 M(N-[2-hydroxyethyl]piperazine-N′-[2-ethanesulfonic acid]) (HEPES), pH 7.3 • Amersham Pharmacia Biotec (US16924-500 ml) • 1 M MgCl2 (SIGMA #M1028) • Dithiothreitol (DTT) (solid) (SIGMA #D9779) • RNase free water (GIBCO-BRL #10977-023) • Dimethyl sulfoxide (Aldrich #27685-5) • Basilen Blue (Sigma, B5520) • 0.5M ethylenediaminetetraacetic acid (EDTA), pH 8 (GIBCO-BRL #15575-020) • Dibasic sodium phosphate (7-hydrate) (Na2HPO4.7H2O; Baker#3824-07) • Phosphoric acid (Baker, #0262.02)
Further reagent preparation: • 0.5 M Na Phosphate buffer. Per liter, weigh 134 gr Na2HPO4.7H2O, add water to 900 ml. Adjust pH to 7.0 with phosphoric acid. Top off with water to 1 L. • Dilute nucleotides 1:1000 to 10 μM (GTP and CTP) or 1:100 to 100 μM (ATP and UTP) into RNase free water.
Procedure: • (1) Compounds 10 μl at 10 μg/ml in 15% dimethylsulfoxide (DMSO)
When starting from 100 μg/ml compound stock in […]: • Dispense 5 μl 30% DMSO per well • Dispense 5 μl compound (100 μg/ml) per well.
When starting from 50 μg/ml compound stock in 15% DMSO: • Add 10 μl compound per well. • (2) Enzyme Mix:
Add 20 μl enzyme mix into each well of the assay plate. Incubate compound and enzyme at room temperature for 15 minutes • (3) Template mix—prepare ahead
Spin down a tube of RNA (5 μg/tube stored in 75% ethanol and 0.3 M sodium acetate) in a microcentrifuge for 20 minutes at 4° C. One tube is enough for 1–1.5 plates. Remove as much ethanol from the tube as possible by inverting the tube. Be gentle, pellet RNA may not adhere to the tube. Vacuum dry the RNA. Resuspend the RNA by adding 1 ml of DEPC water, close the cap of the tube tightly. To dissolve RNA, incubate RNA solution on ice for ˜60 minutes and gently vortex. Spin briefly to ensure all RNA solution is down to the bottom of the tube before opening cap. Gently transfer RNA solution into a 5 ml or larger tube. Add another 3 ml of DEPC water (total 4 ml of volume).
Add the following volumes of reagents
Add 20 μl template mix per reaction (i.e. 20 ng of pOF per reaction or ˜3 nM) • (4) Incubate reaction at room temperature (22–25° C.) for 2 hours. • (5) Stop reaction by adding 50 μl of 170 mM EDTA. • Final concentration of EDTA is 85 mM. • (6) Prewet filters of Millipore multiscreen assay plate by adding 200 μl of 0.5 M sodium phosphate buffer, pH 7.0 into each well. Let stand at room temperature for 2–3 minutes. • (7) Place the multiscreen filter plate onto a Millipore Manifold and turn on vacuum to allow buffer to flow through. Turn off vacuum. Transfer 80 μl of the reaction product into each well of the filter plate. Let stand for 2–3 minutes. […]

Molecules are shown by their SMILES. Bounds are passed on as bounds.

The IC50 is the concentration that inhibits the measured activity by half. For the compound `CC1(CC(=O)O)OCCc2c1[nH]c1cc(Cl)cc(Cl)c21` (stereo not shown) [Example 114, (5,7-dichloro-1-methyl-1,3,4,9-tetrahydropyrano[3,4-b]indol-1-yl)acetic acid], the inhibition at 20 µM turned out to be 57% and the IC50 is over 20 µM.

Turning to `CCCC1(CC(=O)O)OCCc2c1[nH]c1c(C)cc(F)c(Br)c21` (stereo not shown) [Example 201, (5-bromo-6-fluoro-8-methyl-1-propyl-1,3,4,9-tetrahydropyrano[3,4-b]indol-1-yl)acetic acid], the inhibition at 20 µM worked out at 82% and the IC50 came out at 0.15 µM.

Take `CCC1(CC(=O)O)OCCc2c1[nH]c1c(C)cc(F)c(C#N)c21` (stereo not shown) [Example 206, (5-cyano-1-ethyl-6-fluoro-8-methyl-1,3,4,9-tetrahydropyrano[3,4-b]indol-1-yl)acetic acid]: the inhibition at 20 µM was found to be 84% and the IC50 was found to be 1.1 µM.

For `N#Cc1cccc2[nH]c3c(c12)CCOC3(CC(=O)O)c1ccccc1` (stereo not shown) [Example 62, (5-cyano-1-phenyl-1,3,4,9-tetrahydropyrano[3,4-b]indol-1-yl)acetic acid], the inhibition at 20 µM was 32% and the IC50 was over 20 µM.

For `CCCC1(CC(=O)O)OCCc2c1[nH]c1c(Cl)cccc21` (stereo not shown) [Example 74, (8-chloro-1-propyl-1,3,4,9-tetrahydropyrano[3,4-b]indol-1-yl)acetic acid], the inhibition at 20 µM worked out at 69% and the IC50 turned out to be 17.9 µM.

On to `C/C=C/CCC1(CC(=O)O)OCCc2c1[nH]c1c(Cl)ccc(Cl)c21` (stereo not shown) [Example 50, (5,8-dichloro-1-[(3E)-pent-3-enyl]-1,3,4,9-tetrahydropyrano[3,4-b]indol-1-yl)acetic acid], for which the inhibition at 20 µM came out at 34% and the IC50 was over 20 µM.

Consider `CC(C)C1(CC(=O)O)OCCc2c1[nH]c1cccc(C#N)c21` (stereo not shown) [Example 59, (5-cyano-1-isopropyl-1,3,4,9-tetrahydropyrano[3,4-b]indol-1-yl)acetic acid], for which the inhibition at 20 µM was 23% and the IC50 was over 20 µM.

`O=C(O)CC1(c2ccccc2)OCCc2c1[nH]c1c(C(F)(F)F)cccc21` (stereo not shown) [Example 121, [1-phenyl-8-(trifluoromethyl)-1,3,4,9-tetrahydropyrano[3,4-b]indol-1-yl]acetic acid]: the inhibition at 20 µM is under 5% and the IC50 is over 20 µM.

For the compound `CCCC1(CC(=O)O)OCCc2c1[nH]c1c(F)cc(F)c(Br)c21` (stereo not shown) [Example 190, (5-bromo-6,8-difluoro-1-propyl-1,3,4,9-tetrahydropyrano[3,4-b]indol-1-yl)acetic acid], the inhibition at 20 µM is 94% and the IC50 turned out to be 0.2 µM.

Consider `Cc1cc(F)c(C#N)c2c3c([nH]c12)C(C)(CC(=O)O)OCC3` (stereo not shown) [Example 205, (5-cyano-6-fluoro-1,8-dimethyl-1,3,4,9-tetrahydropyrano[3,4-b]indol-1-yl)acetic acid], for which the inhibition at 20 µM came to 34% and the IC50 is over 20 µM.

Turning to `CCCC1(CC(=O)O)OCCc2c1[nH]c1c(Cl)ccc(Cl)c21` (stereo not shown) [Example 7, (5,8-dichloro-1-propyl-1,3,4,9-tetrahydro-pyrano[3,4-b]indol-1-yl)acetic acid], the IC50 is 0.2 µM.

For the compound `CCCCC1(CC(=O)O)OCCc2c1[nH]c1c(Cl)cc(Cl)cc21` (stereo not shown) [Example 103, (1-butyl-6,8-dichloro-1,3,4,9-tetrahydropyrano[3,4-b]indol-1-yl)acetic acid], the inhibition at 20 µM was found to be 60% and the IC50 turned out to be 14.4 µM.

Take `CCCCC1(CC(=O)O)OCCc2c1[nH]c1cccc(Br)c21` (stereo not shown) [Example 68, (5-bromo-1-butyl-1,3,4,9-tetrahydropyrano[3,4-b]indol-1-yl)acetic acid]: the inhibition at 20 µM is 61% and the IC50 was 10.3 µM.

For `CCCCC1(CC(=O)O)OCCc2c1[nH]c1c(Cl)ccc(C(F)(F)F)c21` (stereo not shown) [Example 133, [1-butyl-8-chloro-5-(trifluoromethyl)-1,3,4,9-tetrahydropyrano[3,4-b]indol-1-yl]acetic acid], the inhibition at 20 µM came to 88% and the concentration for half-maximal inhibition (IC50) stood at 0.7 µM.

Consider `Cc1cc(Cl)c2[nH]c3c(c2c1C#N)CCOC3(C)CC(=O)O` (stereo not shown) [Example 181, (8-chloro-5-cyano-1,6-dimethyl-1,3,4,9-tetrahydropyrano[3,4-b]indol-1-yl)acetic acid], for which the inhibition at 20 µM amounted to 14% and the IC50 was over 5 µM.

Consider `C/C=C/CCC1(CC(=O)O)OCCc2c1[nH]c1cccc(Br)c21` (stereo not shown) [Example 24, {5-bromo-1-[(3E)-pent-3-enyl]-1,3,4,9-tetrahydropyrano[3,4-b]indol-1-yl}acetic acid], for which the inhibition at 20 µM was under 5% and the IC50 is over 20 µM.

`CCCC1(CC(=O)O)OCCc2c1[nH]c1c(C)ccc(C#N)c21` (stereo not shown) [Example 1, (5-cyano-8-methyl-1-propyl-1,3,4,9-tetrahydro-pyrano[3,4-b]indol-1-yl)acetic acid]: the IC50 was determined as 0.5 µM.

`CCCC1(CC(=O)O)OCCc2c1[nH]c1c(C)ccc(C(=O)NC)c21` (stereo not shown) [Example 224, (8-methyl-5-methylcarbamoyl-1-propyl-1,3,4,9-tetrahydropyrano[3,4-b]indol-1-yl)acetic acid]: the IC50 was over 20 µM.

Turning to `C/C=C/CCC1(CC(=O)O)OCCc2c1[nH]c1c(Cl)cc(Cl)cc21` (stereo not shown) [Example 104, {6,8-dichloro-1-[(3E)-pent-3-enyl]-1,3,4,9-tetrahydropyrano[3,4-b]indol-1-yl}acetic acid], the inhibition at 20 µM was under 5% and the IC50 is over 20 µM.

Turning to `COC(=O)CC1(CC(=O)O)OCCc2c1[nH]c1cccc(Cl)c21` (stereo not shown) [Example 70, [5-chloro-1-(2-methoxy-2-oxoethyl)-1,3,4,9-tetrahydropyrano[3,4-b]indol-1-yl]acetic acid], the inhibition at 20 µM stood at 22% and the IC50 was over 5 µM.

Regarding `O=C(O)CC1(c2ccc(C(=O)O)cc2)OCCc2c1[nH]c1c(F)ccc(F)c21` (stereo not shown) [Example 128, 4-[1-(carboxymethyl)-5,8-difluoro-1,3,4,9-tetrahydropyrano[3,4-b]indol-1-yl]benzoic acid], the inhibition at 20 µM is 70% and the IC50 was over 20 µM.

As to `CCC1(CC(=O)O)OCCc2c1[nH]c1c(Cl)cc(C)c(C#N)c21` (stereo not shown) [Example 182, (8-chloro-5-cyano-1-ethyl-6-methyl-1,3,4,9-tetrahydropyrano[3,4-b]indol-1-yl)acetic acid], the inhibition at 20 µM was 55% and the IC50 is over 5 µM.

In the case of `C/C=C/CCC1(CC(=O)O)OCCc2c1[nH]c1c(Cl)cc(C)c(Br)c21` (stereo not shown) [Example 178, {5-bromo-8-chloro-6-methyl-1-[(3E)-pent-3-enyl]-1,3,4,9-tetrahydropyrano[3,4-b]indol-1-yl}acetic acid], the inhibition at 20 µM is under 32% and the IC50 is over 5 µM.
